Measured values reported in patent US8609695B2, “Methods of treating and/or suppressing insulin resistance” (Endorecherche, Inc., priority 1999, dated 2013).

Columns and labels:
[1] = system: intact (INT) and ovariectomized (OVX) female rats; assay: EM-652.HCl and DHEA, energy balance and lipid-lipoprotein metabolism, high sucrose-high fat diet (Example 9); type: in vivo; settings: 20 days, EM-652.HCl 0.5 mg/rat per os, DHEA 20 mg/rat topical
Experimental: The objective of this study was to determine the effects of EM-652.HCl and DHEA, administered alone or in combination, on energy balance and lipid-lipoprotein metabolism in rats. The effect of treatments was evaluated on many parameters following a 20-day treatment with EM-652.HCl (0.5 mg/rat, ˜2.5 mg/kg, per os) and DHEA (20 mg/rat, ˜100 mg/kg, topical application), administered alone or in combination, to intact (INT) and ovariectomized (OVX) female rats receiving a high sucrose-high fat diet. For comparison, one intact and ovariectomized control group received the enriched diet while other control animals (intact and OVX) received the commercial rodent diet.
d) Diet: • During the acclimation period, rats received a commercial rodent diet (Purina, #5075) and tap water ad libitum. During study period, groups 1 & 2 continued to receive the commercial diet while groups 3 to 10 received a high sucrose-high fat diet composed of (g/100 g): Sucrose, 45; Corn oil, 10; Lard, 10; Casein, 22.5; dl-Methionine, 0.3; Vitamin mix, 1.2; AIN-76 mineral mix, 5.5; Fiber, 5.5.44
80 rats were assigned to 10 groups of 8 rats for conduct of the study outlined below.
On day 0 of the study, rats from the appropriate groups were ovariectomized (by bilateral flank incision) under Isoflurane anesthesia. Intact rats were sham-operated.
Administration of the tested compounds or vehicle started the day following the ovariectomy (Day 1). […] Rats from control groups received the vehicle alone (per os and topically). Rats were killed on day 21 of the study approximately 24 hours after the last dosing.
Rats were weighed on day 0 (surgery), every 2 days during the study period and on the day of necropsy. Body weights were recorded with a precision of 1.0 g.
On day 21 of the study, overnight fasted rats were killed approximately 24 hours after the last dosing. They were anesthesized with ketamine-xylazine and blood drawn by cardiac punction.
Blood lipids (Total cholesterol and Triglycerides) were measured on frozen serum samples using the Boehringer Mannheim Diagnostic Hitachi 911 Analyzer (Boehringer Mannheim Diagnostic Laboratory Systems). Circulating hormones and substrates (Insulin, leptin, glucose) were measured on serum samples as follow: • Insulin: Linco RIA kit • Glucose: Beckmann automatic glucose analyser • Leptin: Linco RIA kit Organs and Tissues Collected
The following tissues were collected and weighed for all animals: • Muscle (soleus and VLM), fat (retroperitoneal and inguinal), and brown adipose tissue.
A piece of liver was frozen for later determination of TG and CHOL content (Folchis method) while the other tissues were processed for determination of LPL activity.

[2] = system: ovariectomized female rats; assay: 20-day treatment with EM-652.HCl, estradiol and DHEA, body fat (Example 6); type: in vivo, Rattus norvegicus; settings: OVX rats; for decrease of body fat / decrease of retroperitoneal adipose tissue: 20 days; for Retroperitoneal adipose tissue / Fat %: enriched carbohydrate diet, 20 days oral, EM-652.HCl 0.5, E2 0.5, DHEA 100 mg/rat; for Fat %: DEXA day 21
Description: d) Diet: Certified Rodent feed (Lab Diet #5002, pellets) and tap water were provided ad libitum during the acclimation period. During the study period, the rats received an enriched carbonhydrate diet ad libitum. The enriched diet (diet #3) was composed of (g/100 g): Corn starch, 31.2; Dextrose, 31.2; Casein, 20.0; Corn oil, 6.4; dl-Methionine, 0.3; Vitamin mix, 1.0; AIN-76 mineral mix, 4.9; Fiber, 5.0.
80 rats were assigned to 8 groups of 10 rats for the conduct of the study outlined below:
On day 0 of the study, rats from groups 2 to 8 were ovariectomized, by bilateral flank incision, under Isoflurane-induced anesthesia. Rats from group 1 were sham-operated.
The administration of the test articles or vehicle began on Day 1 (the day following the ovariectomy). The tested compounds were given as suspensions in 0.4% methylcellulose by oral gavage (0.5 ml/gavage) for 20 days.
On day 21 of the study (prior to the necropsy), body composition was determined on whole body skeleton of animals under Isoflurane-induced anesthesia using dual energy x-ray absorptiometry (DEXA; QDR 4500A, Hologic) in order to determine the effect of treatments on fat percentage.
Right and left retroperitoneal adipose tissue were collected and weighed.

SMILES | Brown adipose tissue Lipoprotein lipase activity ([1]; OVX rats) | Brown adipose tissue weight ([1]; OVX rats) | Plasma glucose ([1]; OVX rats) | Plasma insulin ([1]; OVX rats) | Plasma leptin ([1]; OVX rats) | Plasma total cholesterol ([1]; OVX rats) | Plasma triglycerides ([1]; OVX rats) | Soleus muscle Lipoprotein lipase activity ([1]; OVX rats) | Soleus muscle weight ([1]; OVX rats) | Total weight ([1]; OVX rats) | VastusLateralis muscle Lipoprotein lipase activity ([1]; OVX rats) | VastusLateralis muscle weight ([1]; OVX rats) | White adipose tissue inguinal Lipoprotein lipase activity ([1]; OVX rats) | White adipose tissue inguinal weight ([1]; OVX rats) | White adipose tissue retroperitoneal Lipoprotein lipase activity ([1]; OVX rats) | White adipose tissue retroperitoneal weight ([1]; OVX rats) | liver total cholesterol ([1]; OVX rats) | liver triglycerides ([1]; OVX rats) | Brown adipose tissue Lipoprotein lipase activity ([1]; sham rats) | Brown adipose tissue weight ([1]; sham rats) | also measured
CC1=C(c2ccc(O)cc2)[C@H](c2ccc(OCCN3CCCCC3)cc2)Oc2cc(O)ccc21.Cl [EM-652.HCl, (S)-(+)-7-hydroxy-3-(4′-hydroxyphenyl)-4-methyl-2-(4″-(2′″-piperidino-ethoxy)phenyl)-2H-1-benxopyran hydrochloride] | 678 ± 65 μU/g protein | 0.408 ± 0.025 g | 9.06 ± 0.30 mmol/L | 0.089 ± 0.013 nmol/L | 1.989 ± 0.326 ng/mL | 1.15 ± 0.11 mmol/L | 0.97 ± 0.16 mmol/L | 39.1 ± 5.0 μU/g protein | 0.104 ± 0.004 g | 268 ± 5 g | 10.8 ± 3.2 μU/g protein | 0.944 ± 0.030 g | 310 ± 63 μU/g protein | 0.709 ± 0.085 g | 1612 ± 186 μU/g protein | 1.370 ± 0.211 g | 0.092 ± 0.006 mmol/L | 0.348 ± 0.078 mmol/L | 1196 ± 83 μU/g protein | 0.306 ± 0.044 g | Plasma glucose ([1]; sham rats): 9.03 ± 0.49 mmol/L; Plasma insulin ([1]; sham rats): 0.057 ± 0.004 nmol/L; Plasma leptin ([1]; sham rats): 2.019 ± 0.402 ng/mL; Plasma total cholesterol ([1]; sham rats): 1.15 ± 0.06 mmol/L; Plasma triglycerides ([1]; sham rats): 0.60 ± 0.12 mmol/L; Soleus muscle Lipoprotein lipase activity ([1]; sham rats): 53.9 ± 3.3 μU/g protein; Soleus muscle weight ([1]; sham rats): 0.098 ± 0.005 g; Total weight ([1]; sham rats): 238 ± 5 g; VastusLateralis muscle Lipoprotein lipase activity ([1]; sham rats): 16.2 ± 3.1 μU/g protein; VastusLateralis muscle weight ([1]; sham rats): 0.965 ± 0.034 g; White adipose tissue inguinal Lipoprotein lipase activity ([1]; sham rats): 160 ± 23 μU/g protein; White adipose tissue inguinal weight ([1]; sham rats): 0.435 ± 0.043 g; White adipose tissue retroperitoneal Lipoprotein lipase activity ([1]; sham rats): 1277 ± 56 μU/g protein; White adipose tissue retroperitoneal weight ([1]; sham rats): 1.058 ± 0.162 g; liver total cholesterol ([1]; sham rats): 0.096 ± 0.011 mmol/L; liver triglycerides ([1]; sham rats): 0.360 ± 0.102 mmol/L; decrease of body fat [2]: 46%; decrease of retroperitoneal adipose tissue [2]: 59%; Retroperitoneal adipose tissue [2]: 1.52 ± 0.18 g; Fat % [2]: 10.2 ± 1.2%
C[C@]12CC[C@H](O)CC1=CC[C@@H]1[C@@H]2CC[C@]2(C)C(=O)CC[C@@H]12 [DHEA, dehydroepiandrosterone] | 1069 ± 96 μU/g protein | 0.342 ± 0.049 g | 8.64 ± 0.24 mmol/L | 0.052 ± 0.009 nmol/L | 2.757 ± 0.631 ng/mL | 1.57 ± 0.12 mmol/L | 0.62 ± 0.08 mmol/L | 45.9 ± 4.7 μU/g protein | 0.103 ± 0.005 g | 274 ± 9 g | 13.1 ± 5.4 μU/g protein | 0.920 ± 0.049 g | 583 ± 134 μU/g protein | 0.885 ± 0.156 g | 1905 ± 112 μU/g protein | 1.699 ± 0.151 g | 0.079 ± 0.005 mmol/L | 0.165 ± 0.047 mmol/L | 982 ± 72 μU/g protein | 0.373 ± 0.036 g | Plasma glucose ([1]; sham rats): 8.05 ± 0.51 mmol/L; Plasma insulin ([1]; sham rats): 0.048 ± 0.012 nmol/L; Plasma leptin ([1]; sham rats): 1.977 ± 0.255 ng/mL; Plasma total cholesterol ([1]; sham rats): 1.59 ± 0.17 mmol/L; Plasma triglycerides ([1]; sham rats): 0.61 ± 0.11 mmol/L; Soleus muscle Lipoprotein lipase activity ([1]; sham rats): 53.6 ± 7.5 μU/g protein; Soleus muscle weight ([1]; sham rats): 0.105 ± 0.004 g; Total weight ([1]; sham rats): 252 ± 5 g; VastusLateralis muscle Lipoprotein lipase activity ([1]; sham rats): 11.5 ± 2.0 μU/g protein; VastusLateralis muscle weight ([1]; sham rats): 0.893 ± 0.043 g; White adipose tissue inguinal Lipoprotein lipase activity ([1]; sham rats): 194 ± 45 μU/g protein; White adipose tissue inguinal weight ([1]; sham rats): 0.659 ± 0.075 g; White adipose tissue retroperitoneal Lipoprotein lipase activity ([1]; sham rats): 1177 ± 188 μU/g protein; White adipose tissue retroperitoneal weight ([1]; sham rats): 1.067 ± 0.149 g; liver total cholesterol ([1]; sham rats): 0.068 ± 0.003 mmol/L; liver triglycerides ([1]; sham rats): 0.038 ± 0.007 mmol/L; decrease of body fat [2]: 59%; decrease of retroperitoneal adipose tissue [2]: 75%; Retroperitoneal adipose tissue [2]: 0.92 ± 0.17 g; Fat % [2]: 7.8 ± 0.8%
